Experimental data as given in patent US9073821B2, “Hydroxamic acid derivative” (priority 2010, dated 2015).

target: Pseudomonas aeruginosa LpxC enzyme (Pseudomonas aeruginosa (strain ATCC 15692 / DSM 22644 / CIP 104116 / JCM 14847 / LMG 12228 / 1C / PRS 101 / PAO1), UniProt P47205); assay: biochemical; assay type: biochemical; settings: class symbols A/B/C by IC50; Table 3; read-out: Enzyme inhibitory activity (inhibitory activity on Pseudomonas aeruginosa LpxC enzyme)

| Compound | IC50 [nM] |
| --- | --- |
| CNC(=O)[C@@](C)(C(=O)NO)N(C)C(=O)c1ccc(C#Cc2coc(CN3CCCOCC3)c2)cc1 [Compound 583, (2S)-N-hydroxy-N′,2-dimethyl-2-{methyl[(4-{[5-(1,4-oxazepan-4-ylmethyl)furan-3-yl]ethynyl}phenyl)carbonyl]amino}propanediamide] | < 10 |
| CNC(=O)[C@@](C)(C(=O)NO)N(C)C(=O)c1ccc(C#C/C=C/C2CCOCC2)cc1 [Compound 590, (2S)-N-hydroxy-N′,2-dimethyl-2-(methyl {4-[(3E)-4-(tetrahydro-2H-pyran-4-yl)but-3-en-1-yn-1-yl]benzoyl}amino)propanediamide] | < 10 |
| CCOC1CN(Cc2ccc(C#Cc3ccc(C(=O)N(C)C(C(=O)NC)C(=O)NO)cc3C)cc2)C1 (centres unmarked) [Compound 582, 2-[{[4-({4-[(3-ethoxyazetidin-1-yl)methyl]phenyl}ethynyl)-3-methylphenyl]carbonyl}(methyl)amino]-N-hydroxy-N′-methylpropanediamide] | < 10 |
| CNC(=O)[C@@](C)(C(=O)NO)N(C)C(=O)c1ccc(C#Cc2cc(C)on2)cc1 [Compound 576, (2S)-N-hydroxy-N′,2-dimethyl-2-[methyl({4-[(5-methyl-1,2-oxazol-3-yl)ethynyl]phenyl}carbonyl)amino]propanediamide] | < 10 |

same assay, conditions: inhibitory activity on Pseudomonas aeruginosa LpxC enzyme, class symbols A/B/C; read-out: Enzyme inhibitory activity

| Compound | IC50 [nM] |
| --- | --- |
| CNC(=O)C(C(=O)NO)N(C)C(=O)c1ccc(-c2ccc(NC)c(C)c2)cc1 (centres unmarked) [Compound 45, N-hydroxy-N′-methyl-2-(methyl {[3′-methyl-4′-(methylamino)biphenyl-4-yl]carbonyl}amino)propanediamide] | < 10 |
| CNC(=O)C(C(=O)NO)N(C)C(=O)c1ccc(-c2ccc(F)cn2)cc1 (centres unmarked) [Compound 108, 2-{[4-(5-fluoropyridin-2-yl)benzoyl](methyl)amino}-N-hydroxy-N′-methylpropanediamide] | > 100 |
| CNC(=O)C(C(=O)NO)N(C)C(=O)c1ccc(-c2ccc(O)cc2)cc1 (centres unmarked) [Compound 49, N-hydroxy-2-{[(4′-hydroxybiphenyl-4-yl)carbonyl](methyl)amino}-N′-methylpropanediamide] | 10 to 100 |
| CNC(=O)C(NC(=O)c1ccc(OC(F)(F)F)cc1)C(=O)NO (centres unmarked) [Compound 16, N-hydroxy-N′-methyl-2-{[4-(trifluoromethoxy)benzoyl]amino}propanediamide] | > 100 |
| CNC(=O)C(C(=O)NO)N(C)C(=O)c1ccc(-c2ccc(OCc3ccccc3)nc2)cc1 (centres unmarked) [Compound 468, 2-[({4-[6-(benzyloxy)pyridin-3-yl]phenyl}carbonyl)(methyl)amino]-N-hydroxy-N′-methylpropanediamide] | < 10 |
| CNC(=O)C(C(=O)NO)N(C)C(=O)c1ccc(-c2ccc(Cc3nn[nH]n3)cc2)cc1 (centres unmarked) [Compound 60, N-hydroxy-N′-methyl-2-(methyl {[4′-(2H-tetrazol-5-ylmethyl)biphenyl-4-yl]carbonyl}amino)propanediamide] | > 100 |
| CNC(=O)C(C(=O)NO)N(C)C(=O)c1ccc(-c2ccc(NC)c(Cl)c2)cc1 (centres unmarked) [Compound 227, 2-[{[3′-chloro-4′-(methylamino)biphenyl-4-yl]carbonyl}(methyl)amino]-N-hydroxy-N′-methylpropanediamide] | < 10 |
| CNC(=O)C(C(=O)NO)N(C)C(=O)c1ccc(-c2cc(F)c(F)c(F)c2)cc1 (centres unmarked) [Compound 220, N-hydroxy-N′-methyl-2-{methyl[(3′,4′,5′-trifluorobiphenyl-4-yl)carbonyl]amino}propanediamide] | 10 to 100 |
| CNC(=O)C(C(=O)NO)N(C)C(=O)c1ccc(-c2ccc(NC)cc2F)cc1 (centres unmarked) [Compound 226, 2-[{[2′-fluoro-4′-(methylamino)biphenyl-4-yl]carbonyl}(methyl)amino]-N-hydroxy-N′-methylpropanediamide] | < 10 |
| CNC(=O)C(C(=O)NO)N(C)C(=O)c1ccc(C#Cc2ccc(CNCCC(C)(C)O)cc2)cc1 (centres unmarked) [Compound 323, N-hydroxy-2-[({4-[(4-{[(3-hydroxy-3-methylbutyl)amino]methyl}phenyl)ethynyl]phenyl}carbonyl)(methyl)amino]-N′-methylpropanediamide] | 10 to 100 |
| Cn1ccnc1CNC(=O)C(NC(=O)c1ccc(-c2ccc(OCCO)cc2)cc1)C(=O)NO (centres unmarked) [Compound 156, N-hydroxy-2-({[4′-(2-hydroxyethoxy)biphenyl-4-yl]carbonyl}amino)-N′-[(1-methyl-1H-imidazol-2-yl)methyl]propanediamide] | < 10 |
| CNC(=O)C(C(=O)NO)N(C)C(=O)c1ccc(-c2cccc(NC)c2)cc1 (centres unmarked) [Compound 278, N-hydroxy-N′-methyl-2-(methyl {[3′-(methylamino)biphenyl-4-yl]carbonyl}amino)propanediamide] | 10 to 100 |
| CC(C)(C)NC(=O)C(NC(=O)c1ccc(-c2ccc(OCCO)cc2)cc1)C(=O)NO (centres unmarked) [Compound 119, N-tert-butyl-N′-hydroxy-2-({[4′-(2-hydroxyethoxy)biphenyl-4-yl]carbonyl}amino)propanediamide] | > 100 |
| CNC(=O)C(C(=O)NO)N(C)C(=O)c1ccc(-c2cc(Cl)cc(Cl)c2)cc1 (centres unmarked) [Compound 222, 2-{[(3′,5′-dichlorobiphenyl-4-yl)carbonyl](methyl)amino}-N-hydroxy-N′-methylpropanediamide] | 10 to 100 |
| CNC(=O)C(C(=O)NO)N(C)C(=O)c1ccc(-c2ccc(C(F)(F)F)cn2)cc1 (centres unmarked) [Compound 297, N-hydroxy-N′-methyl-2-[methyl({4-[5-(trifluoromethyl)pyridin-2-yl]phenyl}carbonyl)amino]propanediamide] | > 100 |
| CN(C(=O)c1ccc(-c2ccccc2)cc1)C(C(=O)NO)C(=O)NCc1ccccn1 (centres unmarked) [Compound 161, 2-[(biphenyl-4-ylcarbonyl)(methyl)amino]-N-hydroxy-N′-(pyridin-2-ylmethyl)propanediamide] | 10 to 100 |

| Compound | IC50 [nM] |
| --- | --- |
| CNC(=O)C(C(=O)NO)N(C)C(=O)c1ccc(-c2ccc3c(c2)OC(F)(F)O3)cc1 (centres unmarked) [Compound 258, 2-{[4-(2,2-difluoro-1,3-benzodioxol-5-yl)benzoyl](methyl)amino}-N-hydroxy-N′-methylpropanediamide] | < 10 |
| O=C(NC(C(=O)NO)C(=O)Nc1cccnc1)c1ccc(-c2ccc(OCCO)cc2)cc1 (centres unmarked) [Compound 116, N-hydroxy-2-({[4′-(2-hydroxyethoxy)biphenyl-4-yl]carbonyl}amino)-N′-(pyridin-3-yl)propanediamide] | 10 to 100 |
| CNC(=O)C(C(=O)NO)N(C(=O)c1ccc(-c2ccccc2)cc1)C1CC1 (centres unmarked) [Compound 127, 2-[(Biphenyl-4-ylcarbonyl)(cyclopropyl)amino]-N-hydroxy-N′-methylpropanediamide] | < 10 |
| CNC(=O)C(C(=O)NO)N(C)C(=O)c1ccc(-c2ccc3nonc3c2)cc1 (centres unmarked) [Compound 189, 2-{[4-(2,1,3-benzoxadiazol-5-yl)benzoyl](methyl)amino}-N-hydroxy-N′-methylpropanediamide] | 10 to 100 |
| CNC(=O)C(C(=O)NO)N(C)C(=O)c1ccc(-c2ccc(N3CCN(C)CC3)cc2)cc1 (centres unmarked) [Compound 267, N-hydroxy-N′-methyl-2-(methyl {[4′-(4-methylpiperazin-1-yl)biphenyl-4-yl]carbonyl}amino)propanediamide] | 10 to 100 |
| CNC(=O)C(C(=O)NO)N(C)C(=O)c1ccc(-c2ccc(CNCC(C)(C)C)cc2)cc1 (centres unmarked) [Compound 74, 2-{[(4′-{[(2,2-dimethylpropyl)amino]methyl}biphenyl-4-yl)carbonyl](methyl)amino}-N-hydroxy-N′-methylpropanediamide] | > 100 |
| CNC(=O)C(C(=O)NO)N(C)C(=O)c1ccc(-c2ccc3c(ccn3CCO)c2)cc1 (centres unmarked) [Compound 31, N-hydroxy-2-[{4-[1-(2-hydroxyethyl)-1H-indol-5-yl]benzoyl}(methyl)amino]-N′-methylpropanediamide] | < 10 |
| CCCCCNc1ccc(-c2ccc(C(=O)N(C)C(C(=O)NC)C(=O)NO)cc2)cn1 (centres unmarked) [Compound 475, N-hydroxy-N′-methyl-2-[methyl({4-[6-(pentylamino)pyridin-3-yl]phenyl}carbonyl)amino]propanediamide] | 10 to 100 |
| CNC(=O)C(C(=O)NO)N(C)C(=O)c1ccc(-c2ccc(N3CCOC3=O)cc2)cc1 (centres unmarked) [Compound 247, N-hydroxy-N′-methyl-2-(methyl {[4′-(2-oxo-1,3-oxazolidin-3-yl)biphenyl-4-yl]carbonyl}amino)propanediamide] | 10 to 100 |
| CNC(=O)C(C(=O)NO)N(C)C(=O)c1ccc(-c2ccc(/C=N/OC)cc2)cc1 (centres unmarked) [Compound 260, N-hydroxy-2-[({4′-[(E)-(methoxyimino)methyl]biphenyl-4-yl}carbonyl)(methyl)amino]-N′-methylpropanediamide] | < 10 |
| CNC(=O)C(C(=O)NO)N(C)C(=O)c1ccc(-c2nc3ccccc3s2)cc1 (centres unmarked) [Compound 344, 2-[{[4-(1,3-benzothiazol-2-yl)phenyl]carbonyl}(methyl)amino]-N-hydroxy-N′-methylpropanediamide] | 10 to 100 |
| CNC(=O)C(C(=O)NO)N(C)C(=O)c1ccc(C#Cc2ccn(C)c2)cc1 (centres unmarked) [Compound 424, N-hydroxy-N′-methyl-2-[methyl({4-[(1-methyl-1H-pyrrol-3-yl)ethynyl]phenyl}carbonyl)amino]propanediamide] | 10 to 100 |
| CNC(=O)C(C(=O)NO)N(C)C(=O)c1ccc(C#Cc2ccc(OCCN3CCCOCC3)cc2)cc1 (centres unmarked) [Compound 381, N-hydroxy-N′-methyl-2-(methyl {[4-({4-[2-(1,4-oxazepan-4-yl)ethoxy]phenyl}ethynyl)phenyl]carbonyl}amino)propanediamide] | < 10 |
| CNC(=O)C(C(=O)NO)N(C)C(=O)c1ccc(-c2ccc(SCCCN3CCOCC3)cc2)cc1 (centres unmarked) [Compound 286, N-hydroxy-N′-methyl-2-{methyl[(4′-{[3-(morpholin-4-yl)propyl]sulfanyl}biphenyl-4-yl)carbonyl]amino}propanediamide] | < 10 |
| CNC(=O)C(C(=O)NO)N(CC(F)F)C(=O)c1ccc(-c2ccccc2)cc1 (centres unmarked) [Compound 174, 2-[(biphenyl-4-ylcarbonyl)(2,2-difluoroethyl)amino]-N-hydroxy-N′-methylpropanediamide] | < 10 |
